Test results as given in patent US7939265B2, “Agents for and method of quantifying binding” (Badrilla Limited, priority 2004, dated 2011).
Where no end group is shown, it is not given here. [ ]: non-standard residue; d: D form. pS = N[C@@H](COP(=O)(O)O)C(=O)O

System: polyclonal antiserum SERCA PS-38
Test: Peptide inhibition of antiserum SERCA PS-38 binding to antigen
Set-up: species or system rabbit
Details: competition against polyclonal antiserum SERCA PS-38
Description: Phosphorylated Ca^2+-ATPase peptide on Ser-38 residue (^31KLKERWGS (PO4)NEL^41) was prepared by the CaMKII phosphorylation of peptide ^31KLKERWGSNEL^41. The phosphopeptide was purified to homogeneity by reverse phase high performance liquid chromatography. Peptide was conjugated to keyhole limpet haemocyanin (KLH) using carbodiimide cross linkage (3) and dialysed extensively against buffer (50 mM Tris-HCl pH 7.2, 150 mM NaCl). Adult New Zealand White rabbits were immunised with ˜150 μg KLH and attached peptide at 6 weeks intervals and immune serum collected 11 days after immunisations. Serum was prepared and stored at −70° C. A polyclonal antiserum is described herein: SERCA PS-38 raised to the phosphorylated peptide.
The phosphorylation of SERCA2 on Ser-38 has been described as a regulatory feature capable of very significant activation of Ca2+-ATPase activity. This site, although unique to SERCA2, is contained within a segment of the protein which is highly conserved between SERCA1 and SERCA2 particularly from residue 39 onwards. […] By analogy with SERCA1, for which two high resolution structures exist the Ser-38 site of phosphorylation on SERCA2 is predicted to be in a surface exposed, highly mobile segment of the protein. […]

Row | Substance | interference with antibody:antigen recognition | IC50 (read-out: inhibition of antibody binding to antigen (IC50)) [nM]
1 | 31KLKERWGSNEL41 (UniProt P16615 31-41, looked up, fragment) [dephosphorylated peptide, equivalent dephosphorylated SERCA2a Ser-38 peptide] | unable to interfere with antibody:antigen recognition | 
2 | 31KLKERWGS(PO4)NEL41 (KLKERWG[pS]NEL; UniProt P16615 31-41, looked up, fragment) [phosphopeptide] |  | 18
